Results on one compound are retold here after EP1921068A1, “Indazole and indole derivatives as anti-inflammatory agents” (Bayer Schering Pharma Aktiengesellschaft, priority 2006, dated 2008).

Each structure is given as a SMILES string.

The target of test [1] is T1, glucocorticoid receptor (GR) (Homo sapiens, UniProt P04150).
T1 construct: made in house; host or cells: Sf9 insect cells infected with recombinant baculovirus; cytosol preparation
T1 sequence (P04150 1-777): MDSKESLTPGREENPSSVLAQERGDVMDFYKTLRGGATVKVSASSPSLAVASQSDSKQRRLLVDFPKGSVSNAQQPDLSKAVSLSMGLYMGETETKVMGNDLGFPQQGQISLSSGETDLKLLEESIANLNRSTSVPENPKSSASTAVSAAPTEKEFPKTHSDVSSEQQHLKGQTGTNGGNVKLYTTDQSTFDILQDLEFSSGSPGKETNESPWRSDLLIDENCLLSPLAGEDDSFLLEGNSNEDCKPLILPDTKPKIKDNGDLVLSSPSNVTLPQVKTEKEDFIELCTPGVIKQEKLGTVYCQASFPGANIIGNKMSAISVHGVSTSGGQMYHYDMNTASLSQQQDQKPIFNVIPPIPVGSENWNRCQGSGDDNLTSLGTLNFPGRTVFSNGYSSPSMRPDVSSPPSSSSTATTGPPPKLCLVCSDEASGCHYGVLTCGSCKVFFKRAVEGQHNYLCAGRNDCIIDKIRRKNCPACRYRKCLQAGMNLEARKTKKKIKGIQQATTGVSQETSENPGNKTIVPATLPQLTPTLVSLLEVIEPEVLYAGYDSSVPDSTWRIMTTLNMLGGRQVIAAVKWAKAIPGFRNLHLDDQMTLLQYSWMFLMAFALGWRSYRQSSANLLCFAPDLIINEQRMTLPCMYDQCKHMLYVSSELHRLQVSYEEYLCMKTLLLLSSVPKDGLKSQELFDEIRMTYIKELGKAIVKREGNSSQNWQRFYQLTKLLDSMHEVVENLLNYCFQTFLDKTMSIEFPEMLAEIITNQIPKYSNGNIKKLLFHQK
As to the kind of experiment: Binding to recombinantly produced glucocorticoid receptor (cytosol preparations of baculovirus-infected Sf9 cells, [3H]-dexamethasone as reference substance). Particulars: recombinant GR. The text has this: The binding of the substances to the glucocorticoid receptor (GR) and other steroid hormone receptors (mineral corticoid receptor (MR), progesterone receptor (PR) and androgen receptor (AR)) is examined with the aid of recombinantly produced receptors. Cytosol preparations of Sf9 cells, which had been infected with recombinant baculoviruses, which code for the GR, are used for the binding studies. In comparison to reference substance [^3H]-dexamethasone, the substances show a high to very high affinity to GR. IC50(GR) = 11,5 nM was thus measured for the compound from Example A16.

Test [2] deals with secretion of cytokine IL-8 into the human monocyte cell line THP-1. Put plainly: Inhibition of LPS-triggered IL-8 secretion in THP-1 cells (ELISA of supernatant). In kind it is cell-based. How it is done:
The concentration of the cytokines was determined in the supernatant by means of commercially available ELISA kits.

`CC(C)(CC(O)(CNc1cccc2c1cnn2-c1ccc(F)nc1)C(F)(F)F)c1cccc2c1OCO2` (stereo not drawn) [Example A16]: the IC50 (usually the concentration that gives 50% inhibition) was 11.5 nM in test [1] and 0.3 nM in test [2] (read-out: IC50(IL8)). Besides, the Emax in test [2] (efficacy relative to dexamethasone, read-out: eff. relative to dexamethasone) turned out to be 94%.
